Measured values: article PMC4786016 (Environmental science & technology, 2015)
Counter-ions that a name gives are not always drawn. Like-named read-outs stand apart in the source and are kept apart here.

Columns and labels:
[1] = biological target: T1, human PPARγ1 (Homo sapiens, UniProt P37231)
[2] = biological target: T1, human PPARγ1; assay: GeneBLAzer PPARγ1 non-DA reporter gene assay; conditions: for Emax: HEK293, read-out: ATVmax: maximal activation% of the tested compounds relative to rosiglitazone
[3] = system: PPARγ; conditions: cited from earlier work
[4] = system: PPARγ2; conditions: PPARγ2, U2OS reporter assay; cited from earlier work
[5] = system: HEK293 cells; assay: Alamar Blue cell viability assay; conditions: high doses
[6] = HEK293 PPARγ1 reporter, 15% of rosiglitazone maximal response
[7] = HEK293 PPARγ1 reporter, 20% of rosiglitazone maximal response

Oc1c(Br)cc(Br)cc1Br [2,4,6-TBP, 2,4,6-tribrominated phenol]
NOAEL [1]: 0.8 µM | ATVmax: maximal activation% of the tested compounds relative to rosiglitazone [2]: 18% | EC15 (concentration inducing 15% activation) [2]: 5.89 µM | [ATVmax]: concentration of the tested compounds to induce the maximal activation% [2]: 7 µM | efficacy (qualitative, based on ATVmax) [2]: + (key: + 7–20%; ++ 20–30%; +++ 30–40%; ++++ 40–50%; +++++ >50%)

Oc1c(I)cc(I)cc1I [2,4,6-TIP, 2,4,6-triiodinated phenol]
NOAEL [1]: 0.4 µM | ATVmax: maximal activation% of the tested compounds relative to rosiglitazone [2]: 20% | EC15 (concentration inducing 15% activation) [2]: 8.72 µM | EC20 (concentration inducing 20% activation) [2]: 11 µM | [ATVmax]: concentration of the tested compounds to induce the maximal activation% [2]: 11 µM | efficacy (qualitative, based on ATVmax) [2]: ++ (key: + 7–20%; ++ 20–30%; +++ 30–40%; ++++ 40–50%; +++++ >50%)

Oc1c(Br)ccc(Oc2ccc(Br)cc2Br)c1Br [3-OH-BDE47, 3-hydroxide-2,2′,4,4′-tetrabromodiphenyl ether (metabolite)]
NOAEL [1]: 0.8 µM | ATVmax: maximal activation% of the tested compounds relative to rosiglitazone [2]: 42% | EC15 (concentration inducing 15% activation) [2]: 2.01 µM | EC20 (concentration inducing 20% activation) [2]: 2.993 µM | [ATVmax]: concentration of the tested compounds to induce the maximal activation% [2]: 7 µM | concentration at which the compound began to activate PPARγ1 [2]: 0.8 µM | efficacy (qualitative, based on ATVmax) [2]: ++++ (key: + 7–20%; ++ 20–30%; +++ 30–40%; ++++ 40–50%; +++++ >50%) | PPARγ binding potency (in words) [3]: comparable binding potency to rosiglitazone

Oc1cc(Br)cc(Br)c1Oc1ccc(Br)cc1Br [6-OH-BDE47, 6-hydroxide-2,2′,4,4′-tetrabromodiphenyl ether (metabolite)]
ATVmax: maximal activation% of the tested compounds relative to rosiglitazone [2]: <8% | PPARγ1 activation (in words) [2]: no activation was observed

CCCCC/C=C/C=C1/C(=O)C=C[C@@H]1C/C=C\CCCC(=O)O [15d-PJG2, 15-Deoxy-D12,14-prostaglandin J2 (endogenous ligands), reference compound]
NOAEL [1]: 0.01 µM | ATVmax: maximal activation% of the tested compounds relative to rosiglitazone [2]: 85% | EC15 (concentration inducing 15% activation) [2]: 0.51 µM | EC20 (concentration inducing 20% activation) [2]: 0.74 µM | [ATVmax]: concentration of the tested compounds to induce the maximal activation% [2]: 33 µM | concentration at which the compound began to activate PPARγ1 [2]: 0.01 µM | efficacy (qualitative, based on ATVmax) [2]: +++++ (key: + 7–20%; ++ 20–30%; +++ 30–40%; ++++ 40–50%; +++++ >50%)

Brc1ccc(Oc2ccc(Br)cc2Br)c(Br)c1 [BDE47, 2,2′,4,4′-tetrabromodiphenyl ether]
NOAEL [1]: 0.8 µM | EC15 (concentration inducing 15% activation) [2]: 5.2 µM | EC20 (concentration inducing 20% activation) [2]: 7 µM | [ATVmax]: concentration of the tested compounds to induce the maximal activation% [2]: 7 µM | efficacy (qualitative, based on ATVmax) [2]: ++ (key: + 7–20%; ++ 20–30%; +++ 30–40%; ++++ 40–50%; +++++ >50%) | Emax [2]: 20% | 5% induction concentration [4]: 10 µM

CCCCC(CC)COC(=O)/C=C/C(=O)OCC(CC)CCCC (centres unmarked) [BEHF, bis(2-ethylhexyl) fumarate]
Emax [2]: < 8% | PPARγ1 activation (in words) ([2]; reporter assay): did not display any obvious PPARγ1 activation

CCCCOC(=O)c1ccccc1C(=O)OCc1ccccc1 [BzBP, benzylbutyl phthalate]
NOAEL [1]: 0.13 µM | ATVmax: maximal activation% of the tested compounds relative to rosiglitazone [2]: 34% | EC15 (concentration inducing 15% activation) [2]: 2.94 µM | EC20 (concentration inducing 20% activation) [2]: 4.81 µM | [ATVmax]: concentration of the tested compounds to induce the maximal activation% [2]: 10 µM | efficacy (qualitative, based on ATVmax) [2]: +++ (key: + 7–20%; ++ 20–30%; +++ 30–40%; ++++ 40–50%; +++++ >50%)

CCCCOC(=O)c1ccccc1C(=O)OCCCC [DBP, dibutyl phthalate]
NOAEL [1]: 0.4 µM | Emax [2]: 23% | [ATVmax]: concentration of the tested compounds to induce the maximal activation% ([2]; HEK293 PPARγ1 reporter): 33 µM | efficacy (qualitative, based on ATVmax) ([2]; HEK293 PPARγ1 reporter): ++ (++ 20–30%) | EC15 (concentration inducing 15% activation) [2, 6]: 6.73 µM | EC20 (concentration inducing 20% activation) [2, 7]: 13.6 µM

CCCCC(CC)COC(=O)c1ccccc1C(=O)OCC(CC)CCCC (centres unmarked) [DEHP, bis(2-ethylhexyl) phthalate]
PPARγ1 activation (in words) ([2]; reporter assay): no activation was observed

CC(C)COC(=O)c1ccccc1C(=O)OCC(C)C [DiBP, diisobutyl phthalate]
NOAEL [1]: 0.4 µM | EC15 (concentration inducing 15% activation) [2]: 4.47 µM | EC20 (concentration inducing 20% activation) [2]: 11.1 µM | [ATVmax]: concentration of the tested compounds to induce the maximal activation% [2]: 33 µM | efficacy (qualitative, based on ATVmax) [2]: ++ (key: + 7–20%; ++ 20–30%; +++ 30–40%; ++++ 40–50%; +++++ >50%) | Emax [2]: 25%

CN(CCOc1ccc(CC2SC(=O)NC2=O)cc1)c1ccccn1 (centres unmarked) [Rosi., rosiglitazone (positive control), reference compound]
NOAEL ([2]; HEK293 PPARγ1 reporter, nonobservable adverse effect level): 0.00001 µM

O=C(O)c1cc(Br)c(Br)c(Br)c1Br [TBBA, 2,3,4,5-tetrabromobenzoic acid (metabolite)]
NOAEL [1]: 1.2 µM | ATVmax: maximal activation% of the tested compounds relative to rosiglitazone [2]: 20% | EC15 (concentration inducing 15% activation) [2]: 8.16 µM | EC20 (concentration inducing 20% activation) [2]: 33 µM | efficacy (qualitative, based on ATVmax) [2]: ++ (key: + 7–20%; ++ 20–30%; +++ 30–40%; ++++ 40–50%; +++++ >50%)

CCCCC(CC)COC(=O)c1c(Br)c(Br)c(Br)c(Br)c1C(=O)O (centres unmarked) [TBMEHP, mono-(2-ethyhexyl) tetrabromophthalate (metabolite)]
NOAEL [1]: 0.13 µM | ATVmax: maximal activation% of the tested compounds relative to rosiglitazone [2]: 40% | EC15 (concentration inducing 15% activation) [2]: 0.53 µM | EC20 (concentration inducing 20% activation) [2]: 0.78 µM | [ATVmax]: concentration of the tested compounds to induce the maximal activation% [2]: 3.3 µM | efficacy (qualitative, based on ATVmax) [2]: ++++ (key: + 7–20%; ++ 20–30%; +++ 30–40%; ++++ 40–50%; +++++ >50%) | cell viability (in words) [5]: reduced viability at higher dosing levels

CC(C)(C)c1ccc(OP(=O)(Oc2ccc(C(C)(C)C)cc2)Oc2ccc(C(C)(C)C)cc2)cc1 [TBPP, tris (4,tert-butyl-phenyl) phosphate]
NOAEL [1]: 0.4 µM | ATVmax: maximal activation% of the tested compounds relative to rosiglitazone [2]: 12% | [ATVmax]: concentration of the tested compounds to induce the maximal activation% [2]: 11 µM | efficacy (qualitative, based on ATVmax) [2]: + (key: + 7–20%; ++ 20–30%; +++ 30–40%; ++++ 40–50%; +++++ >50%)

CC(C)(c1cc(Cl)c(O)c(Cl)c1)c1cc(Cl)c(O)c(Cl)c1 [TCBPA, 3,5,3′,5′-tetrachlorobisphenol A]
NOAEL [1]: 0.09 µM | [ATVmax]: concentration of the tested compounds to induce the maximal activation% ([2]; HEK293 PPARγ1 reporter): 7 µM | efficacy (qualitative, based on ATVmax) ([2]; HEK293 PPARγ1 reporter): +++++ (+++++ >50%) | EC15 (concentration inducing 15% activation) [2, 6]: 0.23 µM | EC20 (concentration inducing 20% activation) [2, 7]: 0.47 µM | ATVmax: maximal activation% of the tested compounds relative to rosiglitazone ([2]; HEK293 PPARγ1 reporter, normalized to maximal response of rosiglitazone): 52%

Oc1cc(Cl)ccc1Oc1ccc(Cl)cc1Cl [TCS, triclosan]
PPARγ1 activation (in words) [2]: did not initiate any activation of PPARγ1 | Emax [2]: < 8% | PPARγ binding potency (in words) [3]: moderate binding potency

O=P(Oc1ccccc1)(Oc1ccccc1)Oc1ccccc1 [TPP, triphenyl phosphate]
NOAEL [1]: 0.4 µM | ATVmax: maximal activation% of the tested compounds relative to rosiglitazone [2]: 43% | EC15 (concentration inducing 15% activation) [2]: 2.12 µM | EC20 (concentration inducing 20% activation) [2]: 3.27 µM | [ATVmax]: concentration of the tested compounds to induce the maximal activation% [2]: 11 µM | concentration at which the compound began to activate PPARγ1 [2]: about 0.4 μM | efficacy (qualitative, based on ATVmax) [2]: ++++ (key: + 7–20%; ++ 20–30%; +++ 30–40%; ++++ 40–50%; +++++ >50%)

c1ccc(OP(Oc2ccccc2)Oc2ccccc2)cc1 [TPPi, triphenyl phosphite]
NOAEL [1]: 1.2 µM

[Cl][Sn]([c]1ccccc1)([c]1ccccc1)[c]1ccccc1 [TPT, triphenyltin chloride]
NOAEL [1]: 0.0003 µM | ATVmax: maximal activation% of the tested compounds relative to rosiglitazone [2]: 54% | EC15 (concentration inducing 15% activation) [2]: 0.004 µM | EC20 (concentration inducing 20% activation) [2]: 0.01 µM | [ATVmax]: concentration of the tested compounds to induce the maximal activation% [2]: 0.33 µM | efficacy (qualitative, based on ATVmax) [2]: +++++ (key: + 7–20%; ++ 20–30%; +++ 30–40%; ++++ 40–50%; +++++ >50%)

Firemaster 550 (mixture) [FM550]
NOAEL [1]: 1.2 µM

di-isopropylated triaryl phosphates [Di-ITP]
NOAEL [1]: 1.2 µM | ATVmax: maximal activation% of the tested compounds relative to rosiglitazone [2]: 16% | EC15 (concentration inducing 15% activation) [2]: 3.25 µM | [ATVmax]: concentration of the tested compounds to induce the maximal activation% [2]: 3.6 µM | efficacy (qualitative, based on ATVmax) [2]: + (key: + 7–20%; ++ 20–30%; +++ 30–40%; ++++ 40–50%; +++++ >50%) | cell viability (in words) [5]: Highly reduced cell viability

isopropylated triaryl phosphates (mixture) [ITP]
NOAEL [1]: 1.2 µM

monoisopropylated triaryl phosphates [mono-ITP]
NOAEL [1]: 1.2 µM | ATVmax: maximal activation% of the tested compounds relative to rosiglitazone [2]: 15% | EC15 (concentration inducing 15% activation) [2]: 3.6 µM | [ATVmax]: concentration of the tested compounds to induce the maximal activation% [2]: 3.6 µM | efficacy (qualitative, based on ATVmax) [2]: + (key: + 7–20%; ++ 20–30%; +++ 30–40%; ++++ 40–50%; +++++ >50%) | cell viability (in words) [5]: Highly reduced cell viability

tert-butyl phenyl diphenyl phosphate (mixture) [BPDP]
NOAEL [1]: 0.4 µM

tri(2-butoxyethanol) phosphate [TBOEP]
ATVmax: maximal activation% of the tested compounds relative to rosiglitazone [2]: 13% | [ATVmax]: concentration of the tested compounds to induce the maximal activation% [2]: 11 µM | efficacy (qualitative, based on ATVmax) [2]: + (key: + 7–20%; ++ 20–30%; +++ 30–40%; ++++ 40–50%; +++++ >50%) | PPARγ binding potency (in words) [3]: significant binding potential at the highest dose level tested

tri-isopropylated triaryl phosphates [Tri-ITP]
NOAEL [1]: 1.2 µM | ATVmax: maximal activation% of the tested compounds relative to rosiglitazone [2]: 41% | EC15 (concentration inducing 15% activation) [2]: 5.7 µM | EC20 (concentration inducing 20% activation) [2]: 7.76 µM | [ATVmax]: concentration of the tested compounds to induce the maximal activation% [2]: 33 µM | concentration at which the compound began to activate PPARγ1 [2]: 1.2 µM | efficacy (qualitative, based on ATVmax) [2]: ++++ (key: + 7–20%; ++ 20–30%; +++ 30–40%; ++++ 40–50%; +++++ >50%)
